Measured values: the Deep4Chem optical property database

Assay: solvent given as SMILES
Conditions: in CN(C)C=O

| Structure (SMILES) | emission maximum |
| --- | --- |
| CCN(CC)c1ccc2cc(/C=C/C(=O)/C=C(O)/C=C/c3cc4ccc(N(CC)CC)cc4oc3=O)c(=O)oc2c1 | 611 nm |
| Oc1ccc(/N=C/c2ccccc2Oc2ccccc2)cc1 | 423 nm |

Same assay, conditions: in CO

| Structure (SMILES) | emission maximum |
| --- | --- |
| CCN(CC)c1ccc2cc(-c3ccc(C(F)(F)F)cc3)oc(=O)c2c1 | 475 nm |
| c1ccc(-c2cc(-c3ccc4ccc5cccc6ccc3c4c56)ccn2)nc1 | 438 nm |
| Oc1cc2ccc3cc(O)cc4ccc(c1)c2c34 | 405 nm |
| O=C1C=CC2=Cc3ccccc3B(O)N12 | 416 nm |
| NCc1ccc2ccc3cccc4ccc1c2c34 | 375 nm |
| Oc1ccc(/N=C/c2ccccc2Oc2ccccc2)cc1 | 415 nm |

Second part, the compound after the results:

| emission maximum | Structure (SMILES) |
| --- | --- |
| 433 nm | Oc1ccc2ccccc2c1-c1nc(-c2ccccc2)c2ccccn12 |
| 379 nm | COc1cccc(-c2nc(-c3ccccc3)c(-c3ccccc3)[nH]2)c1 |
| 430 nm | CCOC(=O)CCCCCn1c2ccccc2c(=O)c2cc(I)ccc21 |
| 410 nm | COc1c2ccccc2c(OC)c2c1c1ccc(F)cc1n2C |

Same assay, conditions: in CS(C)=O

| Structure (SMILES) | emission maximum |
| --- | --- |
| O=C1C=CC2=Cc3ccccc3B(O)N12 | 430 nm |
| CCCN(c1ccccc1)c1ccc2c(c1)C(CC)(CC)c1cc(/C=C/c3ccc(/C=C(\C#N)C(=O)O)s3)ccc1-2 | 514 nm |
| CCN(CC)c1ccc2cc(/C=C/C(=O)/C=C(O)/C=C/c3cc4ccc(N(CC)CC)cc4oc3=O)c(=O)oc2c1 | 621 nm |
| Oc1ccc(/N=C/c2ccccc2Oc2ccccc2)cc1 | 418 nm |

Now from value to compound:

| emission maximum | Structure (SMILES) |
| --- | --- |
| 585 nm | CN(C)c1ccc(/C=C/c2ncnc3ccccc23)cc1 |
| 738 nm | COc1ccc(-c2c3nc(cc4ccc([nH]4)c(-c4ccc(OC)c(OCCCC(=O)O)c4)c4nc(cc5ccc2[nH]5)CC4)CC3)cc1OCCCC(=O)O |
| 420 nm | Brc1ccc(-c2nc3sc4ccccc4c3s2)cc1 |
| 614 nm | C#CCn1c2ccccc2c2cc(/C=C/c3cc(C)c4n3[B-](F)(F)[N+]3=C(C)C=C(C)C3=C4c3ccc(I)cc3)ccc21 |

Same assay, conditions: in Cc1ccccc1

| Structure (SMILES) | emission maximum |
| --- | --- |
| COc1ccc(C2=[N+]3C(=Nc4c(-c5cc(OC)c(OC)c(OC)c5)cc(-c5ccc(OC)cc5)n4[B-]3(F)F)C(c3cc(OC)c(OC)c(OC)c3)=C2)cc1 | 724 nm |
| c1ccc(-c2cc(-c3ccc4ccc5cccc6ccc3c4c56)ccn2)nc1 | 393 nm |
| O=P(c1ccccc1)(c1ccccc1)n1c2ccccc2c2cc(-n3c4ccccc4c4cc(-n5c6ccccc6c6cc(-n7c8ccccc8c8ccccc87)ccc65)ccc43)ccc21 | 376 nm |
| [O-]c1ccccc1-c1[nH+]c2c3ccccc3c3ccccc3c2o1 | 495 nm |
| CCC1=C(C)C2=Cc3c4ccccc4c4n3[B-](c3ccccc3)(Oc3ccccc3-4)[N+]2=C1C (stereo unspecified) | 640 nm |
| c1cc2c3c(c1)-c1ccc4c5c(ccc(c15)B3c1ccc3c5c(ccc-2c15)CC3)CC4 | 516 nm |
| CCN(CC)c1ccc2cc(/C=C/C(=O)/C=C(O)/C=C/c3cc4ccc(N(CC)CC)cc4oc3=O)c(=O)oc2c1 | 542 nm |
| N#Cc1c(-n2c3ccccc3c3cc(I)ccc32)c(-n2c3ccccc3c3cc(I)ccc32)c(C#N)c(-n2c3ccccc3c3cc(I)ccc32)c1-n1c2ccccc2c2cc(I)ccc21 | 548 nm |
| C1=[N+](c2ccccc2)[B-](c2ccccc2)(c2ccccc2)Oc2c1ccc1c3c(ccc21)C=[N+](c1ccccc1)[B-](c1ccccc1)(c1ccccc1)O3 | 602 nm |
| Oc1ccc(/N=C/c2ccccc2Oc2ccccc2)cc1 | 410 nm |

Same assay, conditions: in Cc1ccccc1C

| Structure (SMILES) | emission maximum |
| --- | --- |
| Oc1ccc(/N=C/c2ccccc2Oc2ccccc2)cc1 | 414 nm |

Same assay, conditions: in ClC(Cl)(Cl)Cl

| Structure (SMILES) | emission maximum |
| --- | --- |
| CC1=[O+][B-]2(OC(=O)C(=O)O2)OC(c2c3ccccc3cc3ccccc23)=C1 | 514 nm |

Same assay, conditions: in ClC(Cl)Cl

| Structure (SMILES) | emission maximum |
| --- | --- |
| CCN(CC)c1ccc2cc(-c3ccc(C(F)(F)F)cc3)oc(=O)c2c1 | 450 nm |
| O=C1C=CC2=Cc3ccccc3B(O)N12 | 420 nm |
| CCN(CC)c1ccc2cc(/C=C/C(=O)/C=C(O)/C=C/c3cc4ccc(N(CC)CC)cc4oc3=O)c(=O)oc2c1 | 581 nm |
| CC(C)(C)NC(=O)c1cc2ccc3cccc4ccc(c1C(=O)NC(C)(C)C)c2c34 | 392 nm |
| NCc1ccc2ccc3cccc4ccc1c2c34 | 376 nm |
| c1ccc2c(c1)-c1ccccc1C21c2cc(-c3ccc4ccc5cccc6ccc3c4c56)ccc2-c2ccc(-c3ccc4ccc5cccc6ccc3c4c56)cc21 | 421 nm |
| Oc1ccc(/N=C/c2ccccc2Oc2ccccc2)cc1 | 415 nm |

The next lines start with the values.

| emission maximum | Structure (SMILES) |
| --- | --- |
| 644 nm | F[B-]1(F)n2cccc2C(c2ccccc2)=C2C=CC(c3cccc(OC4=[N+]5C(=C(c6ccccc6)c6cc(Br)c(-c7ccc[nH]7)n6[B-]5(F)F)C=C4Br)c3)=[N+]21 |
| 622 nm | CC[N+](CC)=c1ccc2c(-c3ccccc3C(=O)O)c3cc4c(-c5ccccc5C(=O)O)c5ccc(=[N+](CC)CC)cc-5oc4cc3oc-2c1 |
| 478.2 nm | COc1ccc(C2=Cc3c4ccccc4cc[n+]3[B-](F)(F)O2)cc1 |
| 607 nm | C#CCn1c2ccccc2c2cc(/C=C/c3cc(C)c4n3[B-](F)(F)[N+]3=C(C)C=C(C)C3=C4c3ccc(I)cc3)ccc21 |

Same assay, conditions: in ClCCl

| Structure (SMILES) | emission maximum |
| --- | --- |
| O=P(c1ccccc1)(c1ccccc1)n1c2ccccc2c2cc(-n3c4ccccc4c4cc(-n5c6ccccc6c6cc(-n7c8ccccc8c8ccccc87)ccc65)ccc43)ccc21 | 383 nm |
| CCCc1ccc(C#Cc2cc(C#Cc3ccc(N(C)C)cc3)c3ccc4c(C#Cc5ccc(N(C)C)cc5)cc(C#Cc5ccc(N(C)C)cc5)c5ccc2c3c54)cc1 | 603 nm |
| CCC1=C(C)C2=Cc3c4ccccc4c4n3[B-](c3ccccc3)(Oc3ccccc3-4)[N+]2=C1C (stereo unspecified) | 638 nm |
| CCCN(c1ccccc1)c1ccc2c(c1)C(CC)(CC)c1cc(/C=C/c3ccc(/C=C(\C#N)C(=O)O)s3)ccc1-2 | 600 nm |
| COC(=O)c1[nH]c(-c2ccccc2)c2nnc3ccsc3c12 | 478 nm |
| COC(=O)c1cc(=O)n(C)c2cc(-c3ccccc3)sc12 | 462 nm |
| CCN(CC)c1ccc2cc(/C=C/C(=O)/C=C(O)/C=C/c3cc4ccc(N(CC)CC)cc4oc3=O)c(=O)oc2c1 | 593 nm |
| CN1c2ccc3c(c2-c2ccccc2S1(=O)=O)-c1ccccc1S(=O)(=O)N3C | 443 nm |
| C1=[N+](c2ccccc2)[B-](c2ccccc2)(c2ccccc2)Oc2c1ccc1c3c(ccc21)C=[N+](c1ccccc1)[B-](c1ccccc1)(c1ccccc1)O3 | 594 nm |
| CN(C)c1ccc(C#Cc2cc(C#Cc3ccc(C(F)(F)F)cc3)c3ccc4c(C#Cc5ccc(C(F)(F)F)cc5)cc(C#Cc5ccc(N(C)C)cc5)c5ccc2c3c54)cc1 | 608 nm |
| Oc1ccc(/N=C/c2ccccc2Oc2ccccc2)cc1 | 414 nm |

Other lines, results leading:

| emission maximum | Structure (SMILES) |
| --- | --- |
| 457 nm | N#Cc1ccc(-c2cnc3cccc(-c4ccccc4)n23)cc1 |
| 548 nm | CN(C)c1ccc(/C=C/c2ncnc3ccccc23)cc1 |
| 364 nm | Cc1cccc2cc(C)c3c4ccccc4[nH]c3c12 |
| 467 nm | Oc1ccc2ccccc2c1-c1nc(-c2ccccc2)c2ccccn12 |
| 528 nm | O=C(c1ccc2c3c(cccc13)-c1cccc3c1C2CC=C3)c1c(Cc2ccccc2)c2ccc3cccc4c5cccc6ccc1c(c65)c2c34 (stereo unspecified) |
| 550 nm | Cc1ccc(N(c2ccc(C)cc2)c2ccc(Oc3nnc(Cl)nn3)cc2)cc1 |
| 420 nm | c1ccc2c(-c3c4ccccc4c(-c4ccc(-c5ccc(-n6c7ccccc7c7ccccc76)cc5)cc4)c4ccccc34)cccc2c1 |
| 422 nm | CC(C)(C)c1ccc2c(c1)c1cc(C(C)(C)C)ccc1n2-c1ccc(C#Cc2ccc3c4ccc(C#Cc5ccc(C=O)cc5)cc4n(-c4ccc(C(F)(F)F)cc4)c3c2)cc1 |
| 365 nm | COc1cccc2cc(C)c3c4ccccc4[nH]c3c12 |
| 585 nm | CC(C)(C)OC(=O)N1CCN(c2ccc3c(-c4ccc(I)cc4)c4ccc(=[N+]5CCN(C(=O)OC(C)(C)C)CC5)cc-4oc3c2)CC1 |
| 411 nm | COc1c2ccccc2c(OC)c2c1c1ccc(F)cc1n2C |
| 444.61 nm | O=S1c2ccccc2-c2cc(-c3c4ccccc4cc4ccccc34)ccc21 (stereo unspecified) |

Same assay, conditions: in O

| emission maximum | Structure (SMILES) |
| --- | --- |
| 440 nm | Oc1ccc2ccccc2c1-c1nc(-c2ccccc2)c2ccccn12 |

Same assay, conditions: in OCCO

| Structure (SMILES) | emission maximum |
| --- | --- |
| Oc1ccc(/N=C/c2ccccc2Oc2ccccc2)cc1 | 405 nm |

Same assay, conditions: in c1ccccc1

| emission maximum | Structure (SMILES) |
| --- | --- |
| 444 nm | COc1ccc(-c2nc3ccccc3oc2=O)cc1 |
| 407 nm | CCOC(=O)CSc1nc(C)c(CC)c(C#N)c1C#N |

| Structure (SMILES) | emission maximum |
| --- | --- |
| Oc1ccc(/N=C/c2ccccc2Oc2ccccc2)cc1 | 414 nm |
